Experiments:
Nrf-2 = Nrf-2 induction, nuclear fraction Western blotting; type: cell-based; settings: SH-SY5Y, 10 µM compound for 24 hours
Method: When oxidative stress caused by reactive oxygen species increases in cells, the synthesis of antioxidants increases in response to this. One of the transcription factors mediating this antioxidant response is Nrf-2. As the transcription factor Nrf-2 enters the nucleus and the expression of genes related to antioxidation increases, the antioxidant capacity of cells increases.
Specifically, the SH-SY5Y cell line was exposed to Compound 1aaa (Compound 1, 10 µM) for 24 hours and then the cells were taken. Thereafter, the nuclear fraction was extracted, then Western blotting was performed to analyze the amount of Nrf-2 in the nucleus, and the results are illustrated in FIG. 7.

SH-SY5Y cell line [1] = experiment: Cell viability (MTT assay) after MPP+ or rotenone; type: cell-based; settings: 0.5 µM compound, then MPP+ (2 mM) or rotenone (2 µM) for 24 hours
Method: Specifically, the SH-SY5Y cell line was treated with 0.5 µM of Compound 1aaa (Compound 1), 1aca (Compound 24), lace (Compound 27), 1ahe (Compound 44) or 1aje (Compound 62) and then with MPP+ (2 mM) or rotenone (2 µM) for 24 hours. Cell viability in the case of being treated with each compound is illustrated in FIGS. 4 and 5.

SH-SY5Y cell line [2] = experiment: Inhibition of reactive oxygen species generation (CM-H2DCFDA) after MPP+ or rotenone; type: cell-based; settings: 10 µM compound, then MPP+ (2 mM) or rotenone (2 µM) for 24 hours
Method: It is known that reactive oxygen species are generated by inhibition of mitochondria, activation of NOX enzyme, and the like when MPP+ or rotenone is administered to a cell line. Since the reactive oxygen species generated at this time react with the CM-H2DCFDA reagent to be fluorescent, the reactive oxygen species can be indirectly quantified.
Specifically, the SH-SY5Y cell line was treated with Compound 1aaa (Compound 1, 10 µM), apocynin (5 µM), or allopurinol (50 µM), and then with MPP+ (2 mM) or rotenone (2 µM) for 24 hours. The effect of each compound to inhibit the generation of reactive oxygen species is illustrated in FIGS. 2 and 3 as a relative percentage to that of the control group.

alpha-synuclein = experiment: Alpha-synuclein aggregation (phosphorylation) inhibition, Western blotting; type: cell-based; settings: SH-SY5Y, 10 µM compound then rotenone
Method: When rotenone is administered to nerve cells, phosphorylation, namely aggregation of alpha-synuclein occurs. Phosphorylation, aggregation of alpha-synuclein can be observed and quantified through Western blotting.
Specifically, the SH-SY5Y cell line was treated with Compound 1aaa (Compound 1, 10 µM) and then with rotenone. Thereafter, Western blotting was performed to measure the expression levels of alpha-synuclein and phosphorylated alpha-synuclein, and the results are illustrated in FIG. 6.

[3] = Single acute toxicity evaluation 1 (1000 mg/kg oral); type: in vivo, ICR mice
Method: Acute toxicity properties after single administration of the compound of the present invention were evaluated in an animal model.

CN1C(=[Se])N(c2ccccc2)C(=O)C1=Cc1ccc(O)cc1O [Compound 1aaa]
amount of Nrf-2 in the nucleus, increase (Nrf-2): about 1.5 times
cell viability / inhibition of cell death (SH-SY5Y cell line [1]): significantly inhibit cell death
inhibition of increased generation of reactive oxygen species (SH-SY5Y cell line [2]): effectively inhibits
phosphorylation of alpha-synuclein by rotenone (alpha-synuclein): significantly reduced
autopsy report findings [3]: no specific findings
organ weight [3]: no change in organ weight
change in body weight ([3]; day 0): 100
change in body weight ([3]; day 1): 98.06
change in body weight ([3]; day 2): 101.29
change in body weight ([3]; day 3): 104.85
change in body weight ([3]; day 5): 106.47
change in body weight ([3]; day 7): 109.39
acute toxicity phenomenon ([3]; observed for 1 week): a specific acute toxicity phenomenon was not observed
